# Non-standard residues stand in square brackets, D forms with d. Residues, ends and D or L forms follow the SMILES beside them. ξ: configuration not given here. ξBip(2'-Et-4'-OMe) = CCc1cc(OC)ccc1-c1ccc(CC(N)C(=O)O)cc1; ξNva(5-(3-Cl-Ph)) = NC(CCCc1cccc(Cl)c1)C(=O)O; Ac5c = NC1(C(=O)O)CCCC1
# Legend:
# [1] = tested on: RIN5F (Rat Insulinoma) cells; experiment: In vitro glucose-dependent insulin secretion (RIN5F cell assay screening protocol); format: cell-based; settings: 16.7 mM glucose load
# [2] = molecular target: T1, human glucagon receptor (Homo sapiens, UniProt P47871); experiment: In vitro human glucagon antagonist activity (inhibition of cAMP production) in CHO/human glucagon R cells; format: cell-based; settings: with saturated concentration of glucagon peptide
# T1 construct: The full-length cDNA was cloned in pcDNA3.1 (Invitrogen); expressed in transfected cells
# T1 sequence (P47871 26-477): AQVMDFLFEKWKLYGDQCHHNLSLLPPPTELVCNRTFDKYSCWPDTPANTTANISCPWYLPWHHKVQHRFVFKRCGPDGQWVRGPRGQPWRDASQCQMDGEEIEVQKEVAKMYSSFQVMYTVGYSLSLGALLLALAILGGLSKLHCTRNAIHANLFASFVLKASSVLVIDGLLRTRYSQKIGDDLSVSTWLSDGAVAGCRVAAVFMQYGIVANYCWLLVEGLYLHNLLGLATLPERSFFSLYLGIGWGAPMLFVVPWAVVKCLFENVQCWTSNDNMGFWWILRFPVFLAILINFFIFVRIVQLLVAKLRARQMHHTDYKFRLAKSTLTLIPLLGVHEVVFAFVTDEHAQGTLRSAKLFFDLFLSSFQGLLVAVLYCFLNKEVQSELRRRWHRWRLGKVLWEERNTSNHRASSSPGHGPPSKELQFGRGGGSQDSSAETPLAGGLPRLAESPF
# [3] = molecular target: DPP IV (Homo sapiens, UniProt P27487); experiment: Stability against DPP IV enzyme; format: in vitro ADME; settings: 37° C.; for % degradation of peptidomimetics in 24 h when incubated with DPP-IV enzyme: 2 μM peptidomimetic; for half-life at 2 μM: DPP IV enzyme, pH 7.8, 2 μM peptidomimetic, read-out: half-life (t1/2) when incubated with DPP-IV enzyme
# Chain of DPP IV (P27487 whole entry, species assumed): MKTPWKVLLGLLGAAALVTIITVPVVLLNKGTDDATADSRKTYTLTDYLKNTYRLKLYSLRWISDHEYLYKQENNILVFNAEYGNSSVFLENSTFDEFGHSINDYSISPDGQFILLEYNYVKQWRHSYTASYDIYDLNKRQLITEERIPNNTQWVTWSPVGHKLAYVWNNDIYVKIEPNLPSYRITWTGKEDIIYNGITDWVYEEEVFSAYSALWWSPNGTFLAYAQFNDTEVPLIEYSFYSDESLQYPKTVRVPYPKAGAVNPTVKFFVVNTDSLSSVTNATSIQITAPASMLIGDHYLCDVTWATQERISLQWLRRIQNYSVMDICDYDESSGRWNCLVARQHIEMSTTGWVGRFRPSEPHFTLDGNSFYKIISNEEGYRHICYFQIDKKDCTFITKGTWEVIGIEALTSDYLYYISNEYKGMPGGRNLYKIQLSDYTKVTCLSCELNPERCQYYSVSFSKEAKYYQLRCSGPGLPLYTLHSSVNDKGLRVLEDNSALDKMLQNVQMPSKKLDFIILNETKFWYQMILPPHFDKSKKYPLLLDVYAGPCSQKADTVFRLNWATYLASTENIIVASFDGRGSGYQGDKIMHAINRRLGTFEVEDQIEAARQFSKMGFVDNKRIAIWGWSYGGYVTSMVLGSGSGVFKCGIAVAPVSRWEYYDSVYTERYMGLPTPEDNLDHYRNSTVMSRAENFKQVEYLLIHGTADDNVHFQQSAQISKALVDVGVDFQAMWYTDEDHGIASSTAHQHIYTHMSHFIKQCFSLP
# Protocol: (§1) Reactions were terminated by the addition of TFA/H2O (15 mL, 10% (v/v)). […] The column was equilibrated with TFA/H20, at a flow rate of 1 mL/min.
# [4] = Stability in human plasma; format: in vitro ADME; settings: 2 μM peptidomimetic, pooled human plasma, 37° C.; for half-life at 2 μM: pH 7.8, read-out: half-life (t1/2) when incubated with human plasma
# Protocol: as §1
# [5] = Stability in simulated gastric fluid; format: in vitro ADME; settings: 2 μM peptidomimetic, simulated gastric fluid pH 1.5, 37° C.; for half-life at 2 μM: read-out: half-life (t1/2) when incubated with simulated gastric fluid
# Protocol: as §1
# [6] = Stability in simulated intestinal fluid; format: in vitro ADME; settings: 2 μM peptidomimetic, simulated intestinal fluid pH 7.5, 37° C.; for half-life at 2 μM: read-out: half-life (t1/2) when incubated with simulated intestinal fluid
# Protocol: as §1
# [7] = Stability in liver microsomes; format: in vitro ADME; settings: 2 μM peptidomimetic, human liver microsomes, 37° C.; for half-life at 2 μM: pH 7.8, read-out: half-life (t1/2) when incubated with liver microsomes
# Protocol: as §1
# [8] = molecular target: T2, Human GLP-1 receptor (Homo sapiens, UniProt P43220); experiment: In vitro Human GLP-1 R agonist activity (cyclic AMP determination) in CHO/human GLP1R cells; format: cell-based
# T2 construct: The full-length cDNA was cloned in pcDNA3.1(+); expressed in transfected cells
# T2 sequence (P43220 24-463): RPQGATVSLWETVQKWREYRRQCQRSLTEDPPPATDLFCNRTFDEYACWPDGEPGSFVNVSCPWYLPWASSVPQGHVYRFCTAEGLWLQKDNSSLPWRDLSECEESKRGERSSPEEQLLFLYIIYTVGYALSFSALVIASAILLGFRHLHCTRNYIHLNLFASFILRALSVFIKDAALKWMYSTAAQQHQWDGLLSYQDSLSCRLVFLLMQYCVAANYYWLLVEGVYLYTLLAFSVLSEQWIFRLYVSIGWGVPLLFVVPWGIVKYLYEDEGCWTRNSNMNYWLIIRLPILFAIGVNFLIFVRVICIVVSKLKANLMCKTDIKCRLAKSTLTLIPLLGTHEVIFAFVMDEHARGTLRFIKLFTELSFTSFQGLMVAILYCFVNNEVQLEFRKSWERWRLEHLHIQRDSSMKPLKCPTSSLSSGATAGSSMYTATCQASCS
smiles,measurement,setting,value
"CCc1cc(OC)ccc1-c1ccc(CC(NC(=O)[C@H](CC(=O)O)NC(=O)[C@H](CO)NC(=O)[C@@H](NC(=O)[C@H](Cc2ccccc2)NC(=O)[C@@H](NC(=O)CNC(=O)C(CCC#N)NC(=O)C(C)(C)NC(=O)[C@@H](N)Cc2c[nH]cn2)[C@@H](C)O)[C@@H](C)O)C(=O)NC(CCCc2cccc(Cl)c2)C(N)=O)cc1 (single isomer, unassigned) [compound 31]",Insulin secretion,[1]; 0.1 nM test compd.,16.8 ± 0.20 pg/µg/h
same,Insulin secretion,[1]; 1 nM test compd.,22.7 ± 0.29 pg/µg/h
same,Insulin secretion,[1]; 10 nM test compd.,36.6 ± 0.31 pg/µg/h
same,Human Glucagon receptor antagonistic activity shown as inhibition of cAMP production of Glucagon peptide,[2]; 1 nM test compound,6 ± 0.02 pmol/ml/μg prt
same,Human Glucagon receptor antagonistic activity shown as inhibition of cAMP production of Glucagon peptide,[2]; 10 nM test compound,5 ± 0.03 pmol/ml/μg prt
same,Human Glucagon receptor antagonistic activity shown as inhibition of cAMP production of Glucagon peptide,[2]; 100 nM test compound,2 ± 0.61 pmol/ml/μg prt
same,Human Glucagon receptor antagonistic activity shown as inhibition of cAMP production of Glucagon peptide,[2]; 1 μM test compound,0 pmol/ml/μg prt
same,Human Glucagon receptor antagonistic activity shown as inhibition of cAMP production of Glucagon peptide,[2]; 10 μM test compound,0 pmol/ml/μg prt
same,% degradation of peptidomimetics in 24 h when incubated with DPP-IV enzyme,[3],76%
same,half-life (t1/2) when incubated with human plasma,[4],(9) h
same,% degradation of peptidomimetics in 24 h when incubated with human plasma,[4],78%
same,% degradation of peptidomimetics in 24 h when incubated with simulated gastric fluid,[5],100%
same,half-life at 2 μM,[5],0.5 h
same,% degradation of peptidomimetics in 24 h when incubated with simulated intestinal fluid,[6],100%
same,half-life at 2 μM,[6],0.5 h
same,% degradation of peptidomimetics in 24 h when incubated with liver microsomes,[7],100%
same,half-life at 2 μM,[7],0.5 h
"CCc1cc(OC)ccc1-c1ccc(CC(NC(=O)[C@H](CC(=O)O)NC(=O)[C@H](CO)NC(=O)[C@@H](NC(=O)[C@H](Cc2ccccc2)NC(=O)[C@@H](NC(=O)CNC(=O)C(CCC#N)NC(=O)C(C)(C)NC(=O)[C@@H](N)Cc2c[nH]cn2)[C@@H](C)O)[C@@H](C)O)C(=O)NC(CCCc2ccc(F)cc2F)C(N)=O)cc1 (single isomer, unassigned) [compound 78]",Insulin secretion,[1]; 0.1 nM test compd.,16.6 ± 0.41 pg/µg/h
same,Insulin secretion,[1]; 1 nM test compd.,22.9 ± 0.32 pg/µg/h
same,Insulin secretion,[1]; 10 nM test compd.,36.7 ± 0.11 pg/µg/h
same,Human Glucagon receptor antagonistic activity shown as inhibition of cAMP production of Glucagon peptide,[2]; 1 nM test compound,22 ± 0.03 pmol/ml/μg prt
same,Human Glucagon receptor antagonistic activity shown as inhibition of cAMP production of Glucagon peptide,[2]; 10 nM test compound,21 ± 0.05 pmol/ml/μg prt
same,Human Glucagon receptor antagonistic activity shown as inhibition of cAMP production of Glucagon peptide,[2]; 100 nM test compound,20 ± 0.07 pmol/ml/μg prt
same,Human Glucagon receptor antagonistic activity shown as inhibition of cAMP production of Glucagon peptide,[2]; 1 μM test compound,18 ± 0.04 pmol/ml/μg prt
same,Human Glucagon receptor antagonistic activity shown as inhibition of cAMP production of Glucagon peptide,[2]; 10 μM test compound,18 ± 0.03 pmol/ml/μg prt
same,% degradation of peptidomimetics in 24 h when incubated with DPP-IV enzyme,[3],70%
same,half-life (t1/2) when incubated with human plasma,[4],(9) h
same,% degradation of peptidomimetics in 24 h when incubated with human plasma,[4],71%
same,% degradation of peptidomimetics in 24 h when incubated with simulated gastric fluid,[5],100%
same,half-life at 2 μM,[5],0.5 h
same,% degradation of peptidomimetics in 24 h when incubated with simulated intestinal fluid,[6],100%
same,half-life at 2 μM,[6],0.5 h
same,% degradation of peptidomimetics in 24 h when incubated with liver microsomes,[7],100%
same,half-life at 2 μM,[7],0.5 h
"CCc1cc(OC)ccc1-c1ccc(CC(NC(=O)[C@H](CC(=O)O)NC(=O)[C@H](CO)NC(=O)[C@@H](NC(=O)C(C)(Cc2ccccc2F)NC(=O)[C@@H](NC(=O)CNC(=O)C(CCC#N)NC(=O)C(C)(C)NC(=O)[C@H](Cc2c[nH]cn2)NC(C)=O)[C@@H](C)O)[C@@H](C)O)C(=O)NC(CCCc2ccccc2)C(N)=O)cc1 (single isomer, unassigned) [compound 205]","Human GLP-1 R activity (cAMP release), % activity with respect to control",[8]; 1 nM test compound,96 ± 0.09%
same,"Human GLP-1 R activity (cAMP release), % activity with respect to control",[8]; 10 nM test compound,99 ± 0.07%
same,"Human GLP-1 R activity (cAMP release), % activity with respect to control",[8]; 100 nM test compound,99 ± 0.04%
same,"Human GLP-1 R activity (cAMP release), % activity with respect to control",[8]; 1 μM test compound,99 ± 0.01%
same,"Human GLP-1 R activity (cAMP release), % activity with respect to control",[8]; 10 μM test compound,99 ± 0.08%
same,Human Glucagon receptor antagonistic activity shown as inhibition of cAMP production of Glucagon peptide,[2]; 1 nM test compound,4 ± 0.16 pmol/ml/μg prt
same,Human Glucagon receptor antagonistic activity shown as inhibition of cAMP production of Glucagon peptide,[2]; 10 nM test compound,2 ± 0.11 pmol/ml/μg prt
same,Human Glucagon receptor antagonistic activity shown as inhibition of cAMP production of Glucagon peptide,[2]; 100 nM test compound,0 pmol/ml/μg prt
same,Human Glucagon receptor antagonistic activity shown as inhibition of cAMP production of Glucagon peptide,[2]; 1 μM test compound,0 pmol/ml/μg prt
same,Human Glucagon receptor antagonistic activity shown as inhibition of cAMP production of Glucagon peptide,[2]; 10 μM test compound,0 pmol/ml/μg prt
same,% degradation of peptidomimetics in 24 h when incubated with DPP-IV enzyme,[3],00%
same,half-life at 2 μM,[3],> 24 h
same,% degradation of peptidomimetics in 24 h when incubated with human plasma,[4],00%
same,half-life at 2 μM,[4],> 24 h
same,% degradation of peptidomimetics in 24 h when incubated with simulated gastric fluid,[5],00%
same,half-life at 2 μM,[5],> 24 h
same,% degradation of peptidomimetics in 24 h when incubated with simulated intestinal fluid,[6],00%
same,half-life at 2 μM,[6],> 24 h
same,half-life (t1/2) when incubated with liver microsomes,[7],(5) h
same,% degradation of peptidomimetics in 24 h when incubated with liver microsomes,[7],33%
"CCc1cc(OC)ccc1-c1ccc(CC(NC(=O)[C@H](CC(=O)O)NC(=O)[C@H](CO)NC(=O)[C@@H](NC(=O)C(C)(Cc2ccccc2F)NC(=O)[C@@H](NC(=O)CNC(=O)C(CCC#N)NC(=O)C(C)(C)NC(=O)[C@H](Cc2c[nH]cn2)NC(C)=O)[C@@H](C)O)[C@@H](C)O)C(=O)NC(CCCc2ccccc2F)C(N)=O)cc1 (single isomer, unassigned) [compound 207]","Human GLP-1 R activity (cAMP release), % activity with respect to control",[8]; 1 nM test compound,40 ± 0.11%
same,"Human GLP-1 R activity (cAMP release), % activity with respect to control",[8]; 10 nM test compound,81 ± 0.09%
same,"Human GLP-1 R activity (cAMP release), % activity with respect to control",[8]; 100 nM test compound,89 ± 0.06%
same,"Human GLP-1 R activity (cAMP release), % activity with respect to control",[8]; 1 μM test compound,96 ± 0.14%
same,"Human GLP-1 R activity (cAMP release), % activity with respect to control",[8]; 10 μM test compound,99 ± 0.19%
same,Human Glucagon receptor antagonistic activity shown as inhibition of cAMP production of Glucagon peptide,[2]; 1 nM test compound,0 pmol/ml/μg prt
same,Human Glucagon receptor antagonistic activity shown as inhibition of cAMP production of Glucagon peptide,[2]; 10 nM test compound,0 pmol/ml/μg prt
same,Human Glucagon receptor antagonistic activity shown as inhibition of cAMP production of Glucagon peptide,[2]; 100 nM test compound,0 pmol/ml/μg prt
same,Human Glucagon receptor antagonistic activity shown as inhibition of cAMP production of Glucagon peptide,[2]; 1 μM test compound,0 pmol/ml/μg prt
same,Human Glucagon receptor antagonistic activity shown as inhibition of cAMP production of Glucagon peptide,[2]; 10 μM test compound,0 pmol/ml/μg prt
same,% degradation of peptidomimetics in 24 h when incubated with DPP-IV enzyme,[3],00%
same,half-life at 2 μM,[3],> 24 h
same,% degradation of peptidomimetics in 24 h when incubated with human plasma,[4],00%
same,half-life at 2 μM,[4],> 24 h
same,% degradation of peptidomimetics in 24 h when incubated with simulated gastric fluid,[5],00%
same,half-life at 2 μM,[5],> 24 h
same,% degradation of peptidomimetics in 24 h when incubated with simulated intestinal fluid,[6],00%
same,half-life at 2 μM,[6],> 24 h
same,half-life (t1/2) when incubated with liver microsomes,[7],(5) h
same,% degradation of peptidomimetics in 24 h when incubated with liver microsomes,[7],26%
CCc1cc(OC)ccc1-c1ccc(CC(NC(=O)[C@H](CC(=O)O)NC(=O)[C@H](CO)NC(=O)[C@@H](NC(=O)[C@H](Cc2ccccc2)NC(=O)[C@@H](NC(=O)CNC(=O)[C@H](CCC(N)=O)NC(=O)C2(NC(=O)[C@@H](N)Cc3c[nH]cn3)CCCC2)[C@@H](C)O)[C@@H](C)O)C(=O)NC(CCCc2cccc(Cl)c2)C(N)=O)cc1 (stereo partly drawn) [compound 27] (H-H[Ac5c]QGTFTSD[ξBip(2'-Et-4'-OMe)][ξNva(5-(3-Cl-Ph))]-NH2),Insulin secretion,[1]; 0.1 nM test compd.,16.4 ± 0.12 pg/µg/h
same,Insulin secretion,[1]; 1 nM test compd.,22.7 ± 0.17 pg/µg/h
same,Insulin secretion,[1]; 10 nM test compd.,36.6 ± 0.05 pg/µg/h
same,% degradation of peptidomimetics in 24 h when incubated with DPP-IV enzyme,[3],00%
same,half-life at 2 μM,[3],> 24 h
same,% degradation of peptidomimetics in 24 h when incubated with human plasma,[4],00%
same,half-life at 2 μM,[4],> 24 h
same,% degradation of peptidomimetics in 24 h when incubated with simulated gastric fluid,[5],00%
same,half-life at 2 μM,[5],> 24 h
same,% degradation of peptidomimetics in 24 h when incubated with simulated intestinal fluid,[6],00%
same,half-life at 2 μM,[6],> 24 h
same,half-life (t1/2) when incubated with liver microsomes,[7],(5) h
same,% degradation of peptidomimetics in 24 h when incubated with liver microsomes,[7],31%

# Source: patent publication US8883963B2 (Cadila Healthcare Limited, priority 2007, dated 2014)
